Consider 19 compounds from patent publication US20230212142A9, “Substituted 5-Cyclopropyl-1H-pyrazole-3-yl-amine Derivatives as Selective CDK12/13 Inhibitors” (Aurigene Discovery Technologies Limited, priority 2019, published 2023).

For one assay, the target named is CDK13 (Homo sapiens, UniProt Q14004). Nature of the assay: Biochemical assay for CDK13 (LanthaScreen Eu Kinase Binding Assay). Conditions: kinase tracer 236 100 nM, CDK13 5 nM. As for the experimental part: LanthaScreen Eu Kinase Binding Assays are based on the binding and displacement of Alexa Fluor 647-labeled, ATP-competitive kinase inhibitor scaffold (kinase tracer) to the kinase of interest. Binding of the kinase tracer 236 (100 nM) to the CDK13 (5 nM) kinase is detected using a europium-labelled anti- GST tag antibody (2 nM), which binds to the kinase. Simultaneous binding of the tracer and antibody to the kinase results in a high degree of FRET (fluorescence resonance energy transfer) from the europium (Eu) donor fluorophore to the Alexa Fluor™ 647 acceptor fluorophore on the kinase tracer. Binding of an inhibitor to the kinase competes for binding with the tracer, resulting in a loss of FRET signal.
Background: In TR-FRET formats the signal depends on donor and acceptor labels being close together.

The target in a further assay is CDK7 (Homo sapiens, UniProt P50613). Nature of the assay: Biochemical assay for CDK7 (LANCE TR-FRET, ULight-MBP phosphorylation). Conditions: CDK7 10 nM, ATP 1 mM/100 μM, 60 min pre-incubation. As for the experimental part:
The inhibitory activity of the test compounds was assessed by the LANCE TR-FRET assay, which detects the ATP-dependent phosphorylation of an ULight-myelin basic protein (MBP) substrate peptide (100 nM) by CDK7 (10 nM). Briefly, the enzyme reaction was run in reaction buffer (20 mM HEPES (pH 7.5), 10 mM MgCl2, 0.01% Triton x, 100 μM Sodium Orthovanadate, 1 mM DTT). The assay was performed in 384-well plate. The end concentration of the ATP substrate was 1 mM/100 μM, and that of the ULight-MBP substrate peptide was 100 nM, and of CDK7 was 10 nM. Pre-incubation of the compound and enzyme was performed for 60 min at room temperature. After 60 min incubation at room temperature, the reaction was terminated by the addition of 40 mM EDTA and 1 nM Eu-labeled anti-phospho-MBP-binding protein antibody in the buffer. Time-resolved fluorescence (excitation, 320 nm; emission donor, 615 nm; emission acceptor, 665 nm) was monitored by using 2030 multilabel reader Victor5 (PerkinElmer). The readout was calculated as (acceptor counts/donor counts)×1000. The IC50 values were derived by fitting a sigmoidal dose-response curve to a plot of assay readout over inhibitor concentration. All fits were computed with the program Prism 5.03 (Graph Pad Software, San Diego, Calif.).

The target of another assay is CDK12 (Homo sapiens, UniProt Q9NYV4). Nature of the assay: Biochemical assay for CDK12 (kinase-tagged phage / qPCR competition binding). On the set-up: host or cells: E. coli BL21-derived host (T7 phage display) or HEK-293. As for the experimental part:
Kinase-tagged T7 phage strains were grown in parallel in 24-well blocks in an E. coli host derived from the BL21 strain. E. coli were grown to log-phase and infected with T7 phage from a frozen stock (multiplicity of infection=0.4) and incubated with shaking at 32° C. until lysis (90-150 minutes). The lysates were centrifuged (6,000×g) and filtered (0.2 μm) to remove cell debris. The remaining kinases were produced in HEK-293 cells and subsequently tagged with DNA for qPCR detection. Streptavidin-coated magnetic beads were treated with biotinylated small molecule ligands for 30 minutes at room temperature to generate affinity resins for kinase assays. The liganded beads were blocked with excess biotin and washed with blocking buffer (SeaBlock (Pierce), 1% BSA, 0.05% Tween 20, 1 mM
DTT) to remove unbound ligand and to reduce non-specific phage binding. Binding reactions were assembled by combining kinases, liganded affinity beads, and test compounds in lx binding buffer (20% SeaBlock, 0.17×PBS, 0.05% Tween 20, 6 mM DTT). Test compounds were prepared as 40× stocks in 100% DMSO and directly diluted into the assay. All reactions were performed in polypropylene 384-well plates in a final volume of 0.02 ml. The assay plates were incubated at room temperature with shaking for 1 hour and the affinity beads were washed with wash buffer (1 PBS, 0.05% Tween 20). The beads were then re-suspended in elution buffer (1× PBS, 0.05% Tween 20, 0.5 μM non-biotinylated affinity ligand) and incubated at room temperature with shaking for 30 minutes. The kinase concentration in the eluates was measured by qPCR.
(In general: Real-time PCR tracks product formation cycle by cycle.)

The structures appear in SMILES notation.

CDK12, sequence (Q9NYV4 whole entry, species assumed): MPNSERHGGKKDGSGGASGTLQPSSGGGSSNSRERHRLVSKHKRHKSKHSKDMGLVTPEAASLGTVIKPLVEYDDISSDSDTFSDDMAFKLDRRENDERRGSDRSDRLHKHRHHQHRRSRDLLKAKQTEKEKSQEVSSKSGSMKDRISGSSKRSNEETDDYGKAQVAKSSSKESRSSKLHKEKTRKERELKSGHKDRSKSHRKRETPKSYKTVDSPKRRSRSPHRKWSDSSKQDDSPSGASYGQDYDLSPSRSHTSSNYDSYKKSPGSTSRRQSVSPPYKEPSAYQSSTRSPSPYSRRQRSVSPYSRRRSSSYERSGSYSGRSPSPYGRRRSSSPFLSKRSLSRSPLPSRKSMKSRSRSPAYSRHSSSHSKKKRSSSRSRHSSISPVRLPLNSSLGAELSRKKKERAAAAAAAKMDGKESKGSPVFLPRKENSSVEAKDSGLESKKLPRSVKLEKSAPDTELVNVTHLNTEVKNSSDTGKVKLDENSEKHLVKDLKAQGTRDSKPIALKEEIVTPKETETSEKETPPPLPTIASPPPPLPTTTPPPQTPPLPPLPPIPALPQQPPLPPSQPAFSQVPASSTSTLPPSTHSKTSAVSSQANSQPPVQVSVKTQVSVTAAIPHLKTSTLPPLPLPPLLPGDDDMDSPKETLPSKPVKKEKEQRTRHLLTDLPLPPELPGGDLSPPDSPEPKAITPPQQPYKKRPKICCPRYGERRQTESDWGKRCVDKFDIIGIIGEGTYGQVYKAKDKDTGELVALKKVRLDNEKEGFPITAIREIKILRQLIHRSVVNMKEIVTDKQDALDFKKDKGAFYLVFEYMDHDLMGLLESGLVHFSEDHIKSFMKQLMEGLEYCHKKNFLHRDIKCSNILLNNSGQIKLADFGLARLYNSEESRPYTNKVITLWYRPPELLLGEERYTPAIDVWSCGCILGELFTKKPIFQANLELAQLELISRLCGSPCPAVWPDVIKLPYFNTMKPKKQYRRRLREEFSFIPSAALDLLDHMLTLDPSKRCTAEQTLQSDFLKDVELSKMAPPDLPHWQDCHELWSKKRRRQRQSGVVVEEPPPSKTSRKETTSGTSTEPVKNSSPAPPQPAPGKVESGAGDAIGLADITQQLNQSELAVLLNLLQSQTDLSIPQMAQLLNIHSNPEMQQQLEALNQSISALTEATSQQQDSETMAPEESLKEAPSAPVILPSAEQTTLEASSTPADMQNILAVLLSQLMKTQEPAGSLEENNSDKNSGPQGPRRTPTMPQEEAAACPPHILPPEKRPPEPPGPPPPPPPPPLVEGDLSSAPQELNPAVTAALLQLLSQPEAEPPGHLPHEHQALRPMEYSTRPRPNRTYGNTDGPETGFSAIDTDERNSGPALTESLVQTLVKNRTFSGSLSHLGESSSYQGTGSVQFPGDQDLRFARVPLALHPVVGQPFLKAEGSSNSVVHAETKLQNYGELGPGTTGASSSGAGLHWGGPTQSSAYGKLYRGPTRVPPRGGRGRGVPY
CDK13, sequence (Q14004 whole entry, species assumed): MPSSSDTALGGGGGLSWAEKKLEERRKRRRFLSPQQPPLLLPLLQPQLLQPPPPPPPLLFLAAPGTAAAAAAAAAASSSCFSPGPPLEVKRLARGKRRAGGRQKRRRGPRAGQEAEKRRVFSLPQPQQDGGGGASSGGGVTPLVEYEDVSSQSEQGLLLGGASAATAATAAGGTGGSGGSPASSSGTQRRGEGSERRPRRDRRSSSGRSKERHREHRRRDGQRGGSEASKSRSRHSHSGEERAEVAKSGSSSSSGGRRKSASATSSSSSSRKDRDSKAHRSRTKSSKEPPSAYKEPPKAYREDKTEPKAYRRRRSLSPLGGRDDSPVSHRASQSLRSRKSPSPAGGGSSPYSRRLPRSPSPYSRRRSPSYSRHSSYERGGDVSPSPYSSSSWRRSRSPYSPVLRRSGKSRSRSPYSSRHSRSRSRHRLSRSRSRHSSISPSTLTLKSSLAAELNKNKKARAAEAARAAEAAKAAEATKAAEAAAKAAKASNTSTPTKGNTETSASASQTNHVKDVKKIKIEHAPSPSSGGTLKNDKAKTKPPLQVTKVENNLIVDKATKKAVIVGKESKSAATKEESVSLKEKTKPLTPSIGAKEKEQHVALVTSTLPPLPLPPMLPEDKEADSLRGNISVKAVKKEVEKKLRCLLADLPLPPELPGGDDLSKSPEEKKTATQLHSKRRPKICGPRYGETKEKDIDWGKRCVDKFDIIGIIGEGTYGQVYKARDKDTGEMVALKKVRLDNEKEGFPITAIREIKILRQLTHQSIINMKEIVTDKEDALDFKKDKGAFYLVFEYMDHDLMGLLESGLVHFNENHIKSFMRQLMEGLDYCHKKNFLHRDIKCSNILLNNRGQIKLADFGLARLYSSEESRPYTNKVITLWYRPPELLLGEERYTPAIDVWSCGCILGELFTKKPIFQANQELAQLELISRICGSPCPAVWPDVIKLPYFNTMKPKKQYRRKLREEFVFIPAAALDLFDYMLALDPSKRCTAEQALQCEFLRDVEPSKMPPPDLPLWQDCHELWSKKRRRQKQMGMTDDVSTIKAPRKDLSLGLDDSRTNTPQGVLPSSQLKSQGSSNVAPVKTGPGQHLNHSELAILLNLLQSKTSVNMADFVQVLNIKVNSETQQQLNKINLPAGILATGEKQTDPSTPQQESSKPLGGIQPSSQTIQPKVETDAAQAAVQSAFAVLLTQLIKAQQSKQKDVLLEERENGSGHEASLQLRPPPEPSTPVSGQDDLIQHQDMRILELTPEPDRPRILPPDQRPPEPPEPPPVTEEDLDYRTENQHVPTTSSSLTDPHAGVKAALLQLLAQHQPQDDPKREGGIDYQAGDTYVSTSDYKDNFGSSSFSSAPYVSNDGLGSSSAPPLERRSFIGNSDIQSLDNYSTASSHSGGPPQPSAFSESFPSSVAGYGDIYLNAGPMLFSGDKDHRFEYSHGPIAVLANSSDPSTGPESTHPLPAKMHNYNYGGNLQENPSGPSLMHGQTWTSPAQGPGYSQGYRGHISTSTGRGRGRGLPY
CDK13, sequence (O75909 whole entry partner, species assumed): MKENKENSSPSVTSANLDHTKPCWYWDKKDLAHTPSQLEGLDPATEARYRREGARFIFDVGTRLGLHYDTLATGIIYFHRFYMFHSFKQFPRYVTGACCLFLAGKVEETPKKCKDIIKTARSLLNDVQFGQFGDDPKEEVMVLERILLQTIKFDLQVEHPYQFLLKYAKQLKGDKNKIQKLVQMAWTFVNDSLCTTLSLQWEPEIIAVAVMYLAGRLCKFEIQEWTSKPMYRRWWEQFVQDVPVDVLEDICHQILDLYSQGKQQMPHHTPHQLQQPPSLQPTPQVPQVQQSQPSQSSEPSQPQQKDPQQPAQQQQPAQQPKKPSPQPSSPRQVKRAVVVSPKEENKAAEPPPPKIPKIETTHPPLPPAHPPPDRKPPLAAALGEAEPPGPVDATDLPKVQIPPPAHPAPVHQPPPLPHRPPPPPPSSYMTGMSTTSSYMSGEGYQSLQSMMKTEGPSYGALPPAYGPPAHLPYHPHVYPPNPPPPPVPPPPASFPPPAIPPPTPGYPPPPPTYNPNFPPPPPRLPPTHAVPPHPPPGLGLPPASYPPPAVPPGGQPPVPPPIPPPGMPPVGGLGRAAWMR
CDK7, sequence (P50613 whole entry, species assumed): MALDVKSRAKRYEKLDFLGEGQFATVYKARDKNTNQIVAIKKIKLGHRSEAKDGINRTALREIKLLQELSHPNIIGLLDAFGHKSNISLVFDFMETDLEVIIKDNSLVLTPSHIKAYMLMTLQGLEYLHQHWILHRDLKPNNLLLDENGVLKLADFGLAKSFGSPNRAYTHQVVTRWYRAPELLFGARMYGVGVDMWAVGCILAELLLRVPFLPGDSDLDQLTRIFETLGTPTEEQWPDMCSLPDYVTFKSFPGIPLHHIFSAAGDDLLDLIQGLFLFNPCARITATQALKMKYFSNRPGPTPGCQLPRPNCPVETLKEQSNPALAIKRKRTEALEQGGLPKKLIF
CDK7, sequence (P51946 whole entry partner, species assumed): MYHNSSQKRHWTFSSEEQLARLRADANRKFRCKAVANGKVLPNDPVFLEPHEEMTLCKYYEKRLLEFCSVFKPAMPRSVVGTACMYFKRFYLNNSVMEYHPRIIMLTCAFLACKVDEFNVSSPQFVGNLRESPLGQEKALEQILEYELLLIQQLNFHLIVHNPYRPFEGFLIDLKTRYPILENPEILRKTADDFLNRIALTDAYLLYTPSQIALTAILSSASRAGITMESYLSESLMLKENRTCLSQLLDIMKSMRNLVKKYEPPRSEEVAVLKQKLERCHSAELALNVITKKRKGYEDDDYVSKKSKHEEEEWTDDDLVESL
CDK7, sequence (P51948 whole entry partner, species assumed): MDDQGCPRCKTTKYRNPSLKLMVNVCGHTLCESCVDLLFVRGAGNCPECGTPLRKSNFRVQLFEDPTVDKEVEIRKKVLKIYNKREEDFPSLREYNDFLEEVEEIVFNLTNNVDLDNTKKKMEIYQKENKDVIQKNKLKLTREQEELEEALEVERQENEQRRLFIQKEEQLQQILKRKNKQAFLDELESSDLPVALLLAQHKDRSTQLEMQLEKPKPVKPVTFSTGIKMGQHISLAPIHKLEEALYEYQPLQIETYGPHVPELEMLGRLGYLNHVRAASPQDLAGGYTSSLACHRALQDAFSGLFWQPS

With `C=CC(=O)Nc1ccc(-c2ccc(C(C)C(=O)Nc3cc(C4CC4)[nH]n3)cc2)cc1` (racemic) [Compound 1, N-(4′-(1-((5-cyclopropyl-1H-pyrazol-3-yl)amino)-1-oxopropan-2-yl)-[1,1′-biphenyl]-4-yl)acrylamide], the values for the 50% inhibitory concentration (IC50) at CDK13 and against CDK7 were 0.024 µM and 11.4 µM, respectively. Moreover, the Kd at CDK12 fell in the range of 0.05 to 0.5 µM.

Consider `C=CC(=O)NCc1ccc(-c2ccc(C(C)C(=O)Nc3cc(C4CC4)[nH]n3)cc2)cc1` (racemic) [Compound 9, N-((4′-(1-((5-cyclopropyl-1H-pyrazol-3-yl)amino)-1-oxopropan-2-yl)-[1,1′-biphenyl]-4-yl)methyl)acrylamide], for which the IC50 on CDK13 amounted to 0.0169 µM; on CDK7, 5.45 µM. In addition, at CDK12, the Kd was over 0.5 µM.

Turning to `C=CC(=O)NCc1ccc(C(C)C(=O)Nc2cc(C3CC3)[nH]n2)cc1` (racemic) [Compound 23, N-(4-(1-((5-cyclopropyl-1H-pyrazol-3-yl)amino)-1-oxopropan-2-yl)benzyl)acrylamide], the figures for the IC50 on CDK13 and at CDK7 were 0.28 µM and over 10 µM, respectively. At CDK12, this compound had a Kd of 0.05 to 0.5 µM.

With `C=CC(=O)Nc1ccc(-c2ccc(C(C)C(=O)Nc3cc(C4CC4)[nH]n3)cc2)cc1` (single isomer, unassigned) [Compound 3, N-(4′-(1-((5-cyclopropyl-1H-pyrazol-3-yl)amino)-1-oxopropan-2-yl)-[1,1′-biphenyl]-4-yl)acrylamide], the IC50 is 0.018 µM at CDK13 and 1.9 µM at CDK7.

For `CC(C(=O)Nc1cc(C2CC2)[nH]n1)c1ccc(-c2ccc(NC(=O)/C=C/CN3CCOCC3)nc2)cc1` (single isomer, unassigned) [Compound 6, (E)-N-(5-(4-(1-((5-cyclopropyl-1H-pyrazol-3-yl)amino)-1-oxopropan-2-yl)phenyl)pyridin-2-yl)-4-morpholinobut-2-enamide], the IC50 at CDK13 was 0.5 µM; against CDK7 it was over 10 µM. This compound also gave a Kd on CDK12 of 0.05 to 0.5 µM.

With `CC(C(=O)Nc1cc(C2CC2)[nH]n1)c1ccc(-c2ccc(NC(=O)/C=C/CN3CCOCC3)nc2)cc1` (single isomer, unassigned) [Compound 7, (E)-N-(5-(4-(1-((5-cyclopropyl-1H-pyrazol-3-yl)amino)-1-oxopropan-2-yl)phenyl)pyridin-2-yl)-4-morpholinobut-2-enamide], the results for the IC50 on CDK13 and against CDK7 were 0.005 µM and 1.02 µM, respectively. Besides, the Kd on CDK12 was under 0.05 µM.

As for `C=CC(=O)NCc1ccc(-c2ccc(C(C)C(=O)Nc3cc(C4CC4)[nH]n3)cc2)cc1` (single isomer, unassigned) [Compound 10, N-((4′-(1-((5-cyclopropyl-1H-pyrazol-3-yl)amino)-1-oxopropan-2-yl)-[1,1′-biphenyl]-4-yl)methyl)acrylamide], the IC50 on CDK13 is 0.804 µM; against CDK7, over 10 µM. At CDK12, the Kd was over 0.5 µM.

`C=CC(=O)NCc1ccc(-c2ccc(C(C)C(=O)Nc3cc(C4CC4)[nH]n3)cc2)cc1` (single isomer, unassigned) [Compound 11, N-((4′-(1-((5-cyclopropyl-1H-pyrazol-3-yl)amino)-1-oxopropan-2-yl)-[1,1′-biphenyl]-4-yl)methyl)acrylamide]: the IC50 at CDK13 worked out at 0.096 µM; at CDK7 it was 2.12 µM.

Consider `CC(C(=O)Nc1cc(C2CC2)[nH]n1)c1ccc(-c2ccc(CNC(=O)/C=C/CN3CCOCC3)nc2)cc1` (single isomer, unassigned) [Compound 13, (E)-N-((5-(4-(1-((5-cyclopropyl-1H-pyrazol-3-yl)amino)-1-oxopropan-2-yl)phenyl)pyridin-2-yl)methyl)-4-morpholinobut-2-enamide], for which the IC50 at CDK13 was 2.06 µM; against CDK7, over 10 µM. This compound also returned a Kd on CDK12 of over 0.5 µM.

`CC(C(=O)Nc1cc(C2CC2)[nH]n1)c1ccc(-c2ccc(CNC(=O)/C=C/CN3CCOCC3)nc2)cc1` (single isomer, unassigned) [Compound 14, (E)-N-((5-(4-(1-((5-cyclopropyl-1H-pyrazol-3-yl)amino)-1-oxopropan-2-yl)phenyl)pyridin-2-yl)methyl)-4-morpholinobut-2-enamide]: the values for the IC50 at CDK13 and at CDK7 were 0.0039 µM and 1.12 µM, respectively. Moreover, on CDK12, the Kd is under 0.05 µM.

With `CC(C(=O)Nc1cc(C2CC2)[nH]n1)c1ccc(-c2ccc(CNC(=O)/C=C/CN3CCOCC3)cc2)cc1` (single isomer, unassigned) [Compound 16, (E)-N-((4′-(1-((5-cyclopropyl-1H-pyrazol-3-yl)amino)-1-oxopropan-2-yl)-[1,1′-biphenyl]-4-yl)methyl)-4-morpholinobut-2-enamide], the IC50 is 0.212 µM at CDK13 and over 10 µM against CDK7. Besides, at CDK12, the Kd is over 0.5 µM.

Regarding `CC(C(=O)Nc1cc(C2CC2)[nH]n1)c1ccc(-c2ccc(CNC(=O)/C=C/CN3CCOCC3)cc2)cc1` (single isomer, unassigned) [Compound 17, (E)-N-((4′-(1-((5-cyclopropyl-1H-pyrazol-3-yl)amino)-1-oxopropan-2-yl)-[1,1′-biphenyl]-4-yl)methyl)-4-morpholinobut-2-enamide], the figures for the IC50 on CDK13 and against CDK7 were 0.0536 µM and 1.56 µM, respectively. Moreover, at CDK12, the Kd is under 0.05 µM.

On to `C=CC(=O)NCc1ccc(C(C)C(=O)Nc2cc(C3CC3)[nH]n2)cc1` (single isomer, unassigned) [Compound 24, N-(4-(1-((5-cyclopropyl-1H-pyrazol-3-yl)amino)-1-oxopropan-2-yl)benzyl)acrylamide], for which, at CDK13, the IC50 is 0.236 µM. Also, the Kd at CDK12 lay in the range of 0.05 to 0.5 µM.

Regarding `C=CC(=O)NCc1ccc(C(C)C(=O)Nc2cc(C3CC3)[nH]n2)cc1` (single isomer, unassigned) [Compound 25, N-(4-(1-((5-cyclopropyl-1H-pyrazol-3-yl)amino)-1-oxopropan-2-yl)benzyl)acrylamide], the Kd at CDK12 is over 0.5 µM.

On to `C=CC(=O)NCc1ccc(-c2ccc(C(C)C(=O)Nc3cc(C4CC4)[nH]n3)cn2)cn1` (stereo not shown) [Compound 4, N-((5-(1-((5-cyclopropyl-1H-pyrazol-3-yl)amino)-1-oxopropan-2-yl)[2,3′-bipyridin]-6′-yl)methyl)acrylamide], for which the IC50 at CDK13 came to 0.004 µM.

Take `CC(C(=O)Nc1cc(C2CC2)[nH]n1)c1ccc(-c2ccc(NC(=O)/C=C/CN3CCOCC3)nc2)cc1` (stereo not shown) [Compound 5, (E)-N-(5-(4-(1-((5-cyclopropyl-1H-pyrazol-3-yl)amino)-1-oxopropan-2-yl)phenyl)pyridin-2-yl)-4-morpholinobut-2-enamide]: the IC50 at CDK13 worked out at 0.024 µM; at CDK7, 1.7 µM.

Take `CC(C(=O)Nc1cc(C2CC2)[nH]n1)c1ccc(-c2ccc(NC(=O)/C=C/CN3CCOCC3)cc2)cc1` (stereo not shown) [Compound 12, (E)-N-(4′-(1-((5-cyclopropyl-1H-pyrazol-3-yl)amino)-1-oxopropan-2-yl)-[1,1′-biphenyl]-4-yl)-4-morpholinobut-2-enamide]: the IC50 at CDK13 is 0.0608 µM. The compound further showed a Kd on CDK12 of under 0.05 µM.

As to `C=CC(=O)NC(CC)c1ccc(-c2ccc([C@H](C)C(=O)Nc3cc(C4CC4)[nH]n3)cc2)cn1` (stereo partly drawn) [Compound 19, N-(1-(5-(4-((S)-1-((5-cyclopropyl-1H-pyrazol-3-yl)amino)-1-oxopropan-2-yl)phenyl)pyridin-2-yl)propyl)acrylamide], the IC50 at CDK13 was 0.013 µM. At CDK12, this compound yielded a Kd of under 0.05 µM.

Take `C=CC(=O)NCc1ccc(C(C)C(=O)Nc2cc(C3CC3)[nH]n2)cn1` (stereo not shown) [Compound 26, N-((5-(1-((5-cyclopropyl-1H-pyrazol-3-yl)amino)-1-oxopropan-2-yl)pyridin-2-yl)methyl)acrylamide]: at CDK13, the IC50 was 0.328 µM. For the same compound, the Kd at CDK12 was in the range of 0.05 to 0.5 µM.

Broadly, the IC50 is the point on the concentration scale where inhibition reaches its midpoint. Higher therefore signals lower potency. For orientation: Kd means a measure of binding affinity in units of concentration. A lower Kd goes with a tighter complex.
